# Source: US7422846B2, “Natural ligand for orphan G protein coupled receptor GPR86 and methods of use” (Euroscreen S.A, priority 2001, dated 2008)
# Read-outs that look alike come from different tables or passages of the source.
# How the values were obtained:
# [1] = target: T1, GPR86 (P2Y13) human receptor (Homo sapiens, UniProt Q9BPV8, T179M); assay: IP3 accumulation in 1321N1 cells (AG32) expressing GPR86 (P2Y13) together with Gα16; assay type: cell-based; set-up: expressed in transfected cells; host or cells: 1321N1 astrocytoma clone AG32 (stably expressing Gα16 from pERAEQ2), G418-selected; details: for IP3 response to nucleotides: 100 μM for 30 s, pool of G418-resistant clones expressing GPR86 and Gα16; for IP3 responses after treatment of the nucleotide solutions with CPK and CP (ATP-regenerating system): 1 mM solutions, 20 units/ml CPK, 10 mM CP, 90 min, FIG. 4B; for agonist character at human P2Y13 receptor: after creatinephosphate and creatinephosphokinase treatment; for effect on IP3 accumulation: 100 nM and 10 μM
# T1 sequence (Q9BPV8 22-354 T179M): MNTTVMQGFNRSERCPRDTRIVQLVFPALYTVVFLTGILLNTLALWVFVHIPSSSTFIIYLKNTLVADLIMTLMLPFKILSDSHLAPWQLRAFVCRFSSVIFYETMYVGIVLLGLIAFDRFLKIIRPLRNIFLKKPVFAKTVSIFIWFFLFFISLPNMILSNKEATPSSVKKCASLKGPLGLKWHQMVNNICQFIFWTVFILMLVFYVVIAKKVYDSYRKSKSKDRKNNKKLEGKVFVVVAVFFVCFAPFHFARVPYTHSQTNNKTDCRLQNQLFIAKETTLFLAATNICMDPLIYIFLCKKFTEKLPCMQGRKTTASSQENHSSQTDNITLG
# Method: Cells of the invention, for example, 1321N1 cells, are labelled for 24 hours with 10 μCi/ml [^3H] inositol in inositol free DMEM containing 5% FCS, antibiotics, amphotericin, sodium pyruvate and 400 μg/ml G418. Cells are incubated for 2 h in Krebs-Ringer Hepes (KRH) buffer of the following composition (124 mM NaCl, 5 mM KCl, 1.25 mM MgSO4, 1.45 mM CaCl2, 1.25 mM KH2PO4, 25 mM Hepes (pH: 7.4) and 8 mM glucose). The cells are then challenged with various nucleotides for 30 s. The incubation is stopped by the addition of an ice cold 3% perchloric acid solution. IP are extracted and separated on Dowex columns as previously described (25). 2MeSATP and ATP solutions (1 mM) are treated at room temperature with 20 units/ml CPK and 10 Mm cp for 90 min to circumvent problems arising from the contamination and degradation of triphosphate nucleotide solutions.
# CHO-K1 and 1321N1 cells were transfected with the recombinant GPR86-pEFIN5 plasmid or with the plasmid alone using the FuGENE™6 transfection reagent (Roche Molecular Biochemicals). A clone called AG32 corresponding to 1321N1 cells previously transfected with pERAEQ2 plasmid encoding Gα16 (provided by Euroscreen), was transfected. The CHO-K1 and 1321N1 transfected cells were selected with 400 μg/ml G418 in complete medium (10% FBS, 100 units/ml penicillin, 100 μg/ml streptomycin and 2.5 μg/ml amphotericin B in respectively Ham's F12 or DMEM (Dulbecco's modified Eagle's) medium) two days after transfection and maintained in the same medium. The AG32 cells were maintained in the same DMEM complete medium supplemented with 500 μg/ml zeocin.
# The pool of G418-resistant clones was tested for its functional IP3 response to several nucleotides, according to the method described above. The cells were challenged by various nucleotides at a concentration of 100 μM for 30 s: ATP, ADP, UTP, UDP, ITP, IDP, TDP.
# Concentration-action curves for ADP, 2MeSADP and ADPβS. […] 1321N1 transfected cells were incubated in the presence of various concentrations of ADP, 2MeSADP and ADPβS for 30 s. The data represent the mean±S.D. of triplicate experimental points obtained in one representative experiment of three.
# AG32 cells were seeded (200,000 cells per dish) on 35 mm (diameter) Petri dishes and labeled for 24 h with 5 μCi/ml [3H]-myoinositol in inositol free DMEM containing 5% fetal calf serum, antibiotics, amphotericin, sodium pyruvate, and 400 μg/ml of G418. Cells were incubated for 2 h in Krebs-Ringer Hepes (KRH) buffer (124 mM NaCl, 5 mM KCl, 1.25 mM MgSO4, 1.45 mM CaCl2, 1.25 mM KH2PO4, 25 mM Hepes (pH 7.4) and 8 mM D-glucose). The cells were then incubated in presence of ADP, ATP or 2MeSATP for 30 s. The incubation was stopped by the addition of 1 ml of an ice-cold 3% perchloric acid solution. Prior to the stimulation, ATP and 2MeSATP (1 mM solutions) were incubated for 90 min at room temperature with 20 units/ml creatine phosphokinase (CPK) and 10 mM creatine phosphate (CP). The reaction was stopped by addition of 10 mM iodoacetamide.
# AG32 cells were seeded (200,000 cells per dish) on 35 mm (diameter) Petri dishes and labeled for 24 h with 5 μCi/ml [^3H]-myoinositol in inositol free DMEM containing 5% fetal calf serum, antibiotics, amphotericin, sodium pyruvate, and 400 μg/ml of G418. Cells were incubated for 2 h in Krebs-Ringer Hepes (KRH) buffer (124 mM NaCl, 5 mM KCl, 1.25 mM MgSO4, 1.45 mM CaCl2, 1.25 mM KH2PO4, 25 mM Hepes (pH 7.4) and 8 mM D-glucose). The cells were then incubated in presence of two different concentrations (100 nM and 10 μM) of ADP or ApnA (n=3-6) for 30 s. The incubation was stopped by the addition of 1 ml of an ice-cold 3% perchloric acid solution.
# AG32 cells were seeded (200,000 cells per dish) on 35 mm (diameter) Petri dishes and labeled for 24 h with 5 μCi/ml [^3H]-myoinositol in inositol free DMEM containing 5% fetal calf serum, antibiotics, amphotericin, sodium pyruvate, and 400 μg/ml of G418.
# [2] = target: T1, GPR86 (P2Y13) human receptor; assay: Western blot of phosphorylated Erk1 and Erk2 in GPR86-transfected CHO-K1 cells; assay type: cell-based; set-up: expressed in transfected cells; details: pertussis toxin 100 ng/ml for 18 h; agonist 1 μM, 5 or 30 minutes
# Method: To investigate changes in the activation status of the MAP kinases Erk1 and Erk2 upon stimulation of the human GPR86 receptor, whole CHO-K1 transfected cell extracts were analysed by Western blotting using a specific antibody for the dually phosphorylated kinases (at Thr^202 and Tyr^204), which are the active forms of Erk. Western Blot Analysis of phosphorylated Erk1 and Erk2 proteins.
# GPR86-transfected CHO-K1 cells were seeded at 1.5×10^6 cells/dish. After 24 h, the cells were serum-starved for 2 h in KRH buffer. After stimulation with the agonist, the cells were scraped in 1 ml of PBS pH 7.3 (137 mM NaCl, 2.7 mM KCl, 4.3 mM Na2HPO4.7H2O and 1.4 mM KH2PO4). The cells were recovered by centrifugation and lysed in 150 μl of Laemmli buffer (10% (w/v) glycerol, 5% (v/v) mercaptoethanol, 2.3% (w/v) SDS, 62.5 mM Tris-HCl pH 6.8). The protein concentration was determined using the method of Minamide and Bamburg (27). The same amount of protein for each condition was electrophoresed in a 12% SDS-polyacrylamide gel. Proteins were then transferred overnight at 60 V and 4° C. onto a nitrocellulose membrane using 20 mM Tris, 154 mM glycine, 20% (v/v) methanol as a transfer buffer. Immunodetection was achieved using the enhanced chemiluminescence Western blotting detection system (ECL, Amersham Phammacia Biotech) using a biotinylated-secondary mouse antibody ( 1/25,000). The monoclonal antibody specific for the dually phosphorylated forms of Erk1 and Erk2 (at Thr^202 and Tyr^204) was used at 1/1000-dilution.
# In CHO-K1 cells, phosphorylated Erk1 and Erk2 had the predicted molecular mass of 44 and 42 kDa, respectively. […] GPR86-transfected CHO-K1 cells were stimulated during different times or with various concentrations of ADP and 2MeSADP or water (CONT). The effect of 100 ng/ml pertussis toxin (PTx) has been tested at 5 and 30 min in the presence of 1 μM ADP or 2MeSADP. Blotting and immunodetection were achieved as described using the enhanced chemiluminescence Western blotting detection system (ECL, Amersham Pharmacia Biotech).
# [3] = AG32 cells, nucleotides pretreated with creatine phosphokinase and creatine phosphate, 30 s, read-out: EC50, stimulation of GPR86 receptor activity ([3H]IP3)
# [4] = 1321N1 cells expressing GPR86 and Gα16
compound,measurement,setting,value
"CSc1nc(N)c2ncn([C@@H]3O[C@H](COP(=O)(O)OP(=O)(O)OP(=O)(O)O)[C@@H](O)[C@H]3O)c2n1 [2MeSATP, 2-methylthio-ATP]",IP3 response to nucleotides,[1],responses were lost after HPLC-purification
same,IP3 responses after treatment of the nucleotide solutions with CPK and CP (ATP-regenerating system),[1],abolished
same,agonist character at human P2Y13 receptor,[1]; AG32 cells,partial agonists
same,EC50,[1]; [3],1500 ± 200 nM
"Nc1ncnc2c1ncn2[C@@H]1O[C@H](COP(=O)(O)O)[C@@H](O)[C@H]1OP(=O)(O)O [A2P5P, adenosine 2′,5′-diphosphate]",IP3 response,[1]; [4],No IP3 response
"Nc1ncnc2c1ncn2[C@@H]1O[C@H](COP(=O)(O)O)[C@@H](OP(=O)(O)O)[C@H]1O [A3P5P, adenosine 3′,5′-diphosphate]",IP3 response,[1]; [4],No IP3 response
"Nc1ncnc2c1ncn2[C@@H]1O[C@H](COP(=O)(O)OS(=O)(=O)O)[C@@H](OP(=O)(O)O)[C@H]1O [A3P5PS, adenosine 3′-phosphate 5′-phosphosulfate]",IP3 response,[1]; [4],No IP3 response
Nc1ncnc2c1ncn2[C@@H]1O[C@H](COP(=O)(O)OP(=O)(O)OP(=O)(O)O)[C@@H](O)[C@H]1O [ATP],IP3 response to nucleotides,[1],responses were lost after HPLC-purification
same,IP3 responses after treatment of the nucleotide solutions with CPK and CP (ATP-regenerating system),[1],abolished
same,agonist character at human P2Y13 receptor,[1]; AG32 cells,partial agonists
same,EC50,[1]; [3],4200 ± 800 nM
Nc1ncnc2c1ncn2[C@@H]1O[C@H](COP(=O)(O)OP(=O)(O)OP(=O)(O)OC[C@H]2O[C@@H](n3cnc4c(N)ncnc43)[C@H](O)[C@@H]2O)[C@@H](O)[C@H]1O [Ap3A],effect on IP3 accumulation,"[1]; AG32 cells, 30 s",almost equal to that of ADP
Nc1ncnc2c1ncn2[C@@H]1O[C@H](COP(=O)(O)OP(=O)(O)OP(=O)(O)OP(=O)(O)OC[C@H]2O[C@@H](n3cnc4c(N)ncnc43)[C@H](O)[C@@H]2O)[C@@H](O)[C@H]1O [Ap4A],effect on IP3 accumulation,"[1]; AG32 cells, 30 s",inactive
Nc1ncnc2c1ncn2[C@@H]1O[C@H](COP(=O)(O)OP(=O)(O)OP(=O)(O)OP(=O)(O)OP(=O)(O)OC[C@H]2O[C@@H](n3cnc4c(N)ncnc43)[C@H](O)[C@@H]2O)[C@@H](O)[C@H]1O [Ap5A],effect on IP3 accumulation,"[1]; AG32 cells, 30 s",inactive
Nc1ncnc2c1ncn2[C@@H]1O[C@H](COP(=O)(O)OP(=O)(O)OP(=O)(O)OP(=O)(O)OP(=O)(O)OP(=O)(O)OC[C@H]2O[C@@H](n3cnc4c(N)ncnc43)[C@H](O)[C@@H]2O)[C@@H](O)[C@H]1O [Ap6A],effect on IP3 accumulation,"[1]; AG32 cells, 30 s",inactive
O=c1[nH]cnc2c1ncn2[C@@H]1O[C@H](COP(=O)(O)OP(=O)(O)O)[C@@H](O)[C@H]1O [IDP],IP3 response to nucleotides,[1],induced an IP3 response
O=c1[nH]cnc2c1ncn2[C@@H]1O[C@H](COP(=O)(O)OP(=O)(O)OP(=O)(O)O)[C@@H](O)[C@H]1O [ITP],IP3 response to nucleotides,[1],No IP3 response
Cc1cn([C@H]2C[C@H](O)[C@@H](COP(=O)(O)OP(=O)(O)O)O2)c(=O)[nH]c1=O [TDP],IP3 response to nucleotides,[1],No IP3 response
O=c1ccn([C@@H]2O[C@H](COP(=O)(O)OP(=O)(O)O)[C@@H](O)[C@H]2O)c(=O)[nH]1 [UDP],IP3 response to nucleotides,[1],induced an IP3 response
O=c1ccn([C@@H]2O[C@H](COP(=O)(O)OP(=O)(O)OP(=O)(O)O)[C@@H](O)[C@H]2O)c(=O)[nH]1 [UTP],IP3 response to nucleotides,[1],No IP3 response
Poly[A],activity on human GPR86 after creatinephosphate/creatinephosphokinase treatment,"[1]; AG32 cells, 30 s, FIG. 10",still able to activate GPR86
same,EC50,"[1]; AG32 cells, after creatinephosphate/creatinephosphokinase treatment, concentration in AMP equivalent, read-out: EC50, activation of GPR86 ([3H]IP3)",205000 ± 60000 nM
adenosine 5′-O-(2-thiodiphosphate) [ADPβS],EC50,"[1]; 1321N1 cells expressing GPR86 and Gα16, 30 s, mean±S.D. of three independent experiments, read-out: EC50, IP3 accumulation",48.4 ± 0.4 nM
pertussis toxin,effect on Erk phosphorylation induced by ADP or 2-MeSADP,[2],strongly inhibited
same,inhibition of the ADP response (IP3),"[1]; ADP 300 nM, 18 hours pretreatment with 100 ng/ml pertussis toxin, mean±range of two independent experiments",86±8%
